Converted amounts (≈) assume the structure as drawn.
Assays:
[1] = molecular target: T1, Isocitrate dehydrogenase [NADP] cytoplasmic (Homo sapiens, UniProt O75874, R132H); experiment: Inhibition of recombinant human Myc-DDK-tagged IDH1 R132H mutant using alpha-ketoglutarate as substrate preincubated for 15 mins followed by substrate and NADPH addition and measured after 45 mins by diaphorase/resazurin dye based assay
Target sequence in this assay (O75874 2-414 R132H limits assumed): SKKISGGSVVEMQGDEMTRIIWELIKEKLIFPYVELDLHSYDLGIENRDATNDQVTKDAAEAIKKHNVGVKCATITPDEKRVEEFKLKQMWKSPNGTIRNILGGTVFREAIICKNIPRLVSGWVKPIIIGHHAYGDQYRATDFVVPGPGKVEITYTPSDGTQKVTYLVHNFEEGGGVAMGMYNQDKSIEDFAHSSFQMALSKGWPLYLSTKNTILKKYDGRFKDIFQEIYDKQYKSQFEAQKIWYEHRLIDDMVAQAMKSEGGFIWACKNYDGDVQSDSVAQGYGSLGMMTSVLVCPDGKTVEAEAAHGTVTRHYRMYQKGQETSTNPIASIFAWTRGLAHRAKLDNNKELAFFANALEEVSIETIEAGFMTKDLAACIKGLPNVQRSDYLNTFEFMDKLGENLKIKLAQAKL

[2] = Solubility of the compound; type: physicochemical
[3] = Metabolic stability in human liver microsomes assessed as parent compound remaining after 30 mins; type: ADME, Microsome; settings: read-out: Stability
[4] = Metabolic stability in mouse liver microsomes assessed as parent compound remaining after 30 mins; type: ADME, Microsome; settings: read-out: Stability
Mus musculus [5] = experiment: In vivo inhibition of IDH1 R132C mutant in human HCT116 cells xenografted in BALB/c nude mouse assessed as reduction in tumor 2-HG level at 50 mg/kg, po administered at 12 hrs intervals for 3 times measured at 12 to 24 hrs post-last dose by LC-MS analysis relative to control; type: functional; settings: HCT-116, po
[6] = Free Cmax in CD1 mouse at 100 mg/kg, po administered as single dose; type: ADME, organism-based; settings: in vivo
Mus musculus [7] = experiment: In vivo inhibition of IDH1 R132H mutant in human HCT116 cells xenografted in BALB/c nude mouse assessed as reduction in tumor 2-HG level at 50 mg/kg, po administered at 12 hrs intervals for 3 times measured up to 24 hrs post-last dose by LC-MS analysis relative to control; type: functional; settings: HCT-116, po
[8] = Time at which fCmax required to show >90% suppression of 2-HG level in human HCT116 cells xenografted BALB/c nude mouse in CD1 mouse at 100 mg/kg, po; type: ADME, organism-based; settings: in vivo
[9] = Free Cmax in CD1 mouse at 100 mg/kg, po administered as single dose measured after 7 hrs; type: ADME, organism-based; settings: in vivo
[10] = Apparent permeability across basolateral to apical side in human Caco2 cells; type: ADME, cell-based; settings: caco-2
[11] = Kinetic solubility of the compound at pH 7.4; type: physicochemical; settings: buffer, read-out: Kinetic_solubility
[12] = Permeability of the compound by PAMPA; type: ADME; settings: read-out: permeability
Mus musculus [13] = experiment: In vivo inhibition of IDH1 R132H mutant in human HCT116 cells xenografted in po dosed BALB/c nude mouse assessed as reduction in tumor 2-HG level administered at 12 hrs intervals for 3 times measured up to 24 hrs post-last dose by LC-MS analysis; type: functional
[14] = Apparent permeability across apical to basolateral side in human Caco2 cells; type: ADME, cell-based; settings: caco-2
Mus musculus [15] = experiment: In vivo inhibition of IDH1 R132C mutant in human HCT116 cells xenografted in po dosed BALB/c nude mouse assessed as reduction in tumor 2-HG level administered at 12 hrs intervals for 3 times measured up to 24 hrs post-last dose by LC-MS analysis; type: functional
[16] = molecular target: T2, Isocitrate dehydrogenase [NADP] cytoplasmic (Homo sapiens, UniProt O75874, R132C); experiment: Inhibition of IDH1 R132C mutant in human HCT116 cells assessed as reduction in 2-HG levels after 24 hrs by RapidFire high-throughput mass spectrometry assay; type: cell-based
Target sequence in this assay (O75874 whole entry R132C): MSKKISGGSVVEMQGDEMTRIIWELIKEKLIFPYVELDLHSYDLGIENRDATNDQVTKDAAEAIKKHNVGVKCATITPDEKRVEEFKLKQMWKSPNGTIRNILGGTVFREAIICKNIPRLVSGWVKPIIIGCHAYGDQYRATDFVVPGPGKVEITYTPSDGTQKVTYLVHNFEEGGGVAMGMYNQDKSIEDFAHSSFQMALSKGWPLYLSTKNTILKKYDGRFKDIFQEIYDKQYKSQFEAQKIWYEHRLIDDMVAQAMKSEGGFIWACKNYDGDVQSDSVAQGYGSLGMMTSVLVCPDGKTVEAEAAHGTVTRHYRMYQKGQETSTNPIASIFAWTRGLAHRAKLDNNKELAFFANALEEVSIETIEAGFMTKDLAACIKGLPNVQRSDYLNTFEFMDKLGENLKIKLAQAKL

[17] = molecular target: T1, Isocitrate dehydrogenase [NADP] cytoplasmic; experiment: Inhibition of IDH1 R132H mutant in human HCT116 cells assessed as reduction in 2-HG levels after 24 hrs by RapidFire high-throughput mass spectrometry assay; type: cell-based
Target sequence in this assay (O75874 whole entry R132H): as the sequence (O75874 whole entry R132C) above, with C132H counted along it

[18] = molecular target: T2, Isocitrate dehydrogenase [NADP] cytoplasmic; experiment: Inhibition of recombinant human Myc-DDK-tagged IDH1 R132C mutant using alpha-ketoglutarate as substrate preincubated for 15 mins followed by substrate and NADPH addition and measured after 45 mins by diaphorase/resazurin dye based assay
Target sequence in this assay (O75874 2-414 R132C limits assumed): as the sequence (O75874 2-414 R132H limits assumed) above, with H131C counted along it

Row | Compound | IC50 [1] | solubility [2] | remaining at 0.5 h [3] | remaining at 0.5 h [4] | also measured
1 | N#Cc1ccc(NCc2cc3cc(Cl)ccc3[nH]c2=O)c(=O)[nH]1 | 64.7 nM | 2.21 µM (≈ 0.722 µg/mL) | 100% | 86% | –
2 | C[C@H](Nc1ccc(C#N)n(C)c1=O)c1cc2cc(Cl)c(OCc3ccccn3)cc2[nH]c1=O | – | 2.5 µM (≈ 1.15 µg/mL) | 66% | – | –
3 | COc1cccc(NCc2cc3cc(Cl)ccc3[nH]c2=O)c1 | > 25000 nM | 0.28 µM (≈ 0.0881 µg/mL) | 78% | 19% | –
4 | Cn1c(C#N)ccc(NCc2cc3cc(Cl)ccc3[nH]c2=O)c1=O | – | 0.295 µM (≈ 0.101 µg/mL) | 99% | 73% | –
5 | C[C@H](Nc1ccc(C#N)n(C)c1=O)c1cc2cc(Cl)c(OCC3CC3)cc2[nH]c1=O | – | 0.53 µM (≈ 0.225 µg/mL) | 82% | – | –
6 | COc1cc2[nH]c(=O)c([C@H](C)Nc3ccc(C#N)n(C)c3=O)cc2cc1Cl | – | 11.6 µM (≈ 4.46 µg/mL) | 83% | – | –
7 | Cn1c(C(F)(F)F)ccc(NCc2cc3cc(Cl)ccc3[nH]c2=O)c1=O | 160 nM | < 0.1 µM | 85% | 67% | –
8 | C[C@H](Nc1ccc(C#N)n(C)c1=O)c1cc2cc(Cl)ccc2[nH]c1=O [OLUTASIDENIB] | – | 34.5 µM (≈ 12.2 µg/mL) | 100% | 92% | inhibition in vivo at 50 mg/kg (Mus musculus [5]): > 90%; fCmax [6]: 200 nM; inhibition in vivo at 50 mg/kg (Mus musculus [7]): > 90%; Time [8]: 7 h; fCmax [9]: 130 nM; Papp [10]: 9.01 ×10⁻⁶ cm/s; solubility kinetic [11]: 35.4 µM (≈ 12.6 µg/mL); Papp [12]: 19.9 ×10⁻⁶ cm/s; fIC50 (Mus musculus [13]): 26 nM; Papp [14]: 12.12 ×10⁻⁶ cm/s; fIC50 (Mus musculus [15]): 36 nM
9 | Cn1cccc(NCc2cc3cc(Cl)ccc3[nH]c2=O)c1=O | – | 54 µM (≈ 17.1 µg/mL) | 90% | 26% | –
10 | CN1CCCC(NCc2cc3cc(Cl)ccc3[nH]c2=O)C1=O (stereo unspecified) | 25000 nM | 94 µM (≈ 30.1 µg/mL) | 99% | 83% | –
11 | C[C@H](Nc1ccc(C#N)n(C)c1=O)c1cc2cc(Cl)c(F)cc2[nH]c1=O | 25 nM | 18 µM (≈ 6.71 µg/mL) | 100% | – | IC50 [16]: 104 nM; IC50 [17]: 22 nM; IC50 [18]: 159 nM
12 | O=c1[nH]c2ccc(Cl)cc2cc1CNc1cccn(C2CC2)c1=O | – | 56 µM (≈ 19.1 µg/mL) | 78% | 7% | –
13 | CCn1cccc(NCc2cc3cc(Cl)ccc3[nH]c2=O)c1=O | – | 10 µM (≈ 3.3 µg/mL) | 72% | 7% | –
14 | C[C@H](Nc1ccc(C#N)n(C)c1=O)c1cc2cc(Cl)c(O[C@H](C)c3ccccn3)cc2[nH]c1=O | – | 1.6 µM (≈ 0.761 µg/mL) | 70% | – | –

Source: ChEMBL document CHEMBL4321881 (J Med Chem, 2020)
